How the values were obtained:
[1] = tested on: Primary rat cultured cortical neurons; settings: cited from earlier work
γ-secretase [2] = settings: cited from earlier work
[3] = tested on: mild to moderate Alzheimer patients; settings: 78-week study; cited from earlier work
γ-secretase [4] = settings: human, in vivo; cited from earlier work
CaCo-2 cells = assay: in vitro permeability of a layer of CaCo-2 cells; type: in vitro ADME, human; settings: for mean A−>B Papp (apparent permeability): test conc 50 μM
[5] = 78-week study; cited from earlier work
[6] = liver microsome stability; type: in vitro ADME, Mouse
α7 nicotinic receptors = target: T1, α7 nicotinic receptors (Rattus norvegicus, UniProt Q05941); settings: cited from earlier work
T1 construct: Primary cultured rat neurons can be depolarized by the application of 1.5 mM choline; endogenous in cells; host or cells: primary cultured rat neurons

mice = settings: cited from earlier work
Rat cortical neurons = assay: neurite network assessment with Aβ1-42 oligomers in cortical cell culture; type: cell-based
Procedure: Rat cortical neurons were cultured as described by Callizot et al (J Neurosci Res 2013, 91:706-716). On day 11 of culture, Aβ oligomer solution, 20 μM, was applied. The Aβ oligomer preparation, having an average weight of 90 kDa, prepared as described by Callizot et al (op cit) contained only diffusible species, not fibrils or protofibrils. Briefly, Aβ1-42 peptide at a concentration of 40 μM was dissolved in the culture medium, gently agitated for 3 days at 37° C. in the dark, and used immediately after dilution. SDL 11349 and BDNF (50 ng/ml) were dissolved in culture medium (maximum of 0.1% DMSO final concentration) then pre-incubated with primary cortical neurons for 24 h before the Aβ1-42 oligomer solution application.
The oligomers were incubated with the neurons and various concentrations of SDL 11349, or BDNF, 50 ng/ml, the positive control, for 24 hours, in 6 replicates per condition. Then the supernatant was removed and the neurons were fixed with a cold ethanol and acetic acid solution. The cells were permeabilized with 0.1% saponin and then incubated for 2 h with mouse monoclonal antibody […] microtubule-associated protein 2 (MAP-2). Subsequently, Alexa-Fluor 488 goat anti-mouse IgG was applied, and images were obtained and analyzed automatically.

acetylcholinesterase [7] = target: T2, acetylcholinesterase (Homo sapiens, UniProt P22303); assay: acetylcholinesterase inhibition; type: biochemical
Source text: This compound was first described in Han et al as a cholinesterase inhibitor in Bioorg. & Medicinal Chemistry Letters 1, 11 579-580 (1991).

acetylcholinesterase [8] = target: T2, acetylcholinesterase; settings: read-out: IC50 for acetylcholinesterase inhibition; cited from earlier work
Bv-2 microglial cells = assay: Abeta 1-42 oligomer clearance in microglial Bv-2 cell culture; type: cell-based; settings: applied for 24 hours, 0.11 to 0.67 μM; oligomerized Aβ1-42 10 μM for 6 h
Procedure: Abeta oligomers were prepared using beta-amyioid (1-42) from American Peptide (Product #62-0-80). One aliquot was dissolved in an adequate volume of TBS (50 mM Tris-Buffer, 150 mM NaCl, pH=7.4) to achieve a final concentration of 1.7 mg/ml (corresponding to 340 μM). The solution was sonicated for 2 minutes and then diluted 1:2 in water to obtain a final concentration of 170 μM. Next, the Abeta was allowed to aggregate at 4′C for 48 hours. Prior to application, the solution was sonicated for another minute.
Bv-2 microglial cells were kept in culture medium (DMEM medium, 10% FBS, 2 mM glutamine, 1% Penc/Strep) until 80-90% confluency. Cells were maintained at 37° C., 95% humidity and 5% CO2. Afterwards, cells were seeded in culture medium on 24-well plates at a cell density of 1×10^5 cells per well. After 24 h, the medium was exchanged for the treatment medium (DMEM medium, 5% FBS, 2 mM glutamine). […] The medium was separated by affinity (removing monomers) and the oligomers not phagocytosed were disaggregated by HFIP treatment and measured by MSD. […]
The immune assay was carried out according to the manual and plates were read on the Sector Imager (MSD). Analyte levels were evaluated according to adequate Aβ peptide standards (MSD). […] Group differences are evaluated by one-way ANOVA.

[9] = tested on: CA1 pyramidal neurons in the dorsal hippocampus; assay: dendritic spine assessment after 5 days ip treatment; type: in vivo, mice
Procedure: Adult C57B16 mice, (8 weeks old) were administered vehicle or SDL 11349, 0.005, 0.03, 0.07, 0.1 or 0.2 mg/kg, ip, per day for five days prior to sacrifice after rapid anesthetization with isofluorane. Brain tissue was sectioned into […] slices from anterior to posterior extremes.
Ballistic dye labelling was performed, followed by laser-scanning confocal microscopy (Olympus FV1000) using a 63× objective (1.42 NA) to scan individually labelled neurons at high resolution (0.103×0.103×0.33 μm voxels). Target neurons were identified in the brain region of interest by anatomical location and cell morphology. Microscopy was performed blind to experimental conditions. A minimum of 5 samples per animal were measured for each segment.
Blind deconvolution (AutoQuant) was applied to raw three-dimensional digital images which were then analyzed for spine density and morphology by trained analysts. Individual spines were measured manually for (a) head diameter, (b) length, and (c) neck thickness from image Z-stacks using custom-built Afraxis ESP software. Each dendrite was analyzed by 3 independent analysts.
Automated image assignment software (C++) distributed images to analysts in a randomized manner and ensured that each analyst performed measurements of near equal numbers of dendrites per group. Analysts were blinded to all experimental conditions. […] For spine density and spine morphological classification, data across analysts were averaged to report data for each dendrite. Data population values (N's) were reported from dendrites collected equally from all mice.
Values are reported in tables and plots as group means±standard errors of the mean (SEMs). For all group comparisons of parametric values, statistical significance was determined using the analysis of variance test (ANOVA; SPSS). Post-hoc comparisons were assessed using the Student's t-test (2 tails). […]
Dendritic spine morphology was analyzed from samples taken from secondary apical dendrites, and secondary basal dendrites of CA1 pyramidal neurons in the dorsal hippocampus. […] A 50 μm segment was analyzed from each location.

[10] = tested on: Mice with lesions of the nucleus basalis magnocellularis (nBm); settings: cited from earlier work
[11] = stability in mouse plasma
[12] = tested on: patients with moderate, but not mild Alzheimer's disease; settings: 36-week study; cited from earlier work
γ-secretase [13] = settings: in vivo; cited from earlier work
patients with mild AD = settings: 12 weeks; cited from earlier work
[14] = tested on: adrenal chromaffin and human neuroblastoma cells; settings: cited from earlier work

T2 sequence (P22303 32-614, species assumed): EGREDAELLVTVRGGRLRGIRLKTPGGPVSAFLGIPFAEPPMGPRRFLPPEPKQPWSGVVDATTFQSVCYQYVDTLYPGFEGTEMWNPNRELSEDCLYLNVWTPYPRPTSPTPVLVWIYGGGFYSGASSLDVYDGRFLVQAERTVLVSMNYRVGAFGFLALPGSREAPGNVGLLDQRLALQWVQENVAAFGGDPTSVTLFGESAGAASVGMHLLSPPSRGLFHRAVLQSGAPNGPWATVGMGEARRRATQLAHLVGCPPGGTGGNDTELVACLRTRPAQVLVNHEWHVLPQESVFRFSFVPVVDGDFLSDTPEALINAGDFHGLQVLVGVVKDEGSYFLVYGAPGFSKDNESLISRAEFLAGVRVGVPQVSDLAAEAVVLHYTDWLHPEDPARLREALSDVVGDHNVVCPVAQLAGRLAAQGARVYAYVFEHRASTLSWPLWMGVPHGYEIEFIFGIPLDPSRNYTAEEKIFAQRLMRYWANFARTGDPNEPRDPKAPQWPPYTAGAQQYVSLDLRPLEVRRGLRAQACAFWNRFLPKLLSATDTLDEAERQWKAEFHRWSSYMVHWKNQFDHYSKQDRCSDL
T1 sequence (Q05941 23-502): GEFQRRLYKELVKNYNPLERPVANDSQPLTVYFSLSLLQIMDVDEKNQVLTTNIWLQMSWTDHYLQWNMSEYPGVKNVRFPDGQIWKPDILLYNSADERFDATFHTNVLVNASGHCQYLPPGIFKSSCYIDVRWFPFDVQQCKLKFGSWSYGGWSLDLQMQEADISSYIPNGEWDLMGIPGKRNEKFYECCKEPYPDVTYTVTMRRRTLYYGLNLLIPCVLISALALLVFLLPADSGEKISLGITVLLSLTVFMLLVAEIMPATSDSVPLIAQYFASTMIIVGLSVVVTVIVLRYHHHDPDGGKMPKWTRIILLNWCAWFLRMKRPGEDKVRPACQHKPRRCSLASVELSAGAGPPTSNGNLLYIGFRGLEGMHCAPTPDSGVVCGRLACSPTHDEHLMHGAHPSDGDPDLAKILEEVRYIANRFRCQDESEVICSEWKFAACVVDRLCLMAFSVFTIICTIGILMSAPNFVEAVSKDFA

In the case of CN1CCCC1c1cccnc1 (centres unmarked) [Nicotine], the “protection against Aβ plus glutamate toxicity” value [1] is listed as “protective against Aβ plus glutamate toxicity”.

In the case of NC(=O)[C@@H](CCC(F)(F)F)N(Cc1ccc(-c2ncon2)cc1F)S(=O)(=O)c1ccc(Cl)cc1 [avagacestat], the “CSF Aβ40” value (γ-secretase [2]; human, in vivo) is given as “effectively reduces CSF Aβ40” and the conversion to dementia (γ-secretase [2]; prodromal Alzheimer's disease, reduced CSF Aβ42) is given as “no reduction in conversion to dementia”.

In the case of O[C@H]1[C@H](O)[C@@H](O)[C@H](O)[C@@H](O)[C@@H]1O [ELND005, scyllo-inositol], the “CSF Aβ and ventricular volume” value [3] is given as “Significant decreases in CSF Aβ and increases in ventricular volume” and the “cognitive or behavioral tests” value [3] is given as “no benefit on any cognitive or behavioral test”.

For C[C@@H](C(=O)O)c1ccc(-c2ccccc2)c(F)c1 [tarenflurbil], the “Phase III outcome” value (γ-secretase [4]) is listed as “failed in Phase III”.

For CNC(=C[N+](=O)[O-])NCCSCc1ccc(CN(C)C)o1 [Ranitidine], the “mean A−>B Papp (apparent permeability)” value (CaCo-2 cells) was 1.1 10^−6 cm s^−1.

For NCCCS(=O)(=O)O [Tramiprosate], the ADAS-cog [5] is given as “trend towards improvement on the ADAS-cog” and the hippocampal volume [5] is given as “reduction of hippocampal volume loss”.

In the case of COc1ccc2c3c1O[C@H]1C[C@@H](O)C=C[C@@]31CCN(C)C2 [Galanthamine HBr], the “NADPH-dependent T1/2 (half-life)” value ([6]; 5.0 μM, Mouse) is reported as greater than 1 h and the “NADPH-free T1/2 (half-life)” value ([6]; 5.0 μM, Mouse) is reported as greater than 1 h.

In the case of CCCCNC(=O)O[C@H]1C=C[C@@]23CCN(C)Cc4ccc(OC)c(c42)O[C@H]3C1 [SDL 11349, n-butylcarbamate derivative (4aS,6R,8aS)-5,6,9,10,11,12-hexahydro-3-methoxy-11-methyl-4aH-[1]benzofuro[3a,3,2-ef][2]benzazepin-6-ol], the “enhancement of the depolarization caused by choline” value (α7 nicotinic receptors; 1 μM, 1.5 mM choline) is listed as 15.9±2.1%, the “enhancement in presence of FK-1, antibody to the galantamine recognition site” value (α7 nicotinic receptors) is listed as “blocked” and the “dose at which decreased motility appeared” value (mice) is listed as greater than 30 mg/kg. The “lethality (no lethality up to)” value (mice) was greater than 100 mg/kg, the adverse effects observed (mice; doses of 50-100 mg/kg) was “wobbly and off-balance with rapid heart rate still present at 4 hours, but were recovered at 24 hours” and the “effect on Aβ oligomer-induced loss of neurite network” value (Rat cortical neurons; 1 μM, Aβ oligomer 20 μM, 24 h) was “blocked the toxic effect of the Aβ oligomers”. The predicted oral bioavailability (CaCo-2 cells; based on in vitro CaCo-2 permeability) was 80%, the “mean A−>B Papp (apparent permeability)” value (CaCo-2 cells) was 20.8 10^−6 cm s^−1 and the “enzymatic activity relative to galantamine” value (acetylcholinesterase [7]) was “about 36%”. The IC50 (acetylcholinesterase [8]) was 1090 nM, the “reduction of β-amyloid oligomer concentration in the medium” value (Bv-2 microglial cells) was 38-40% and the “total spine density, basal samples” value ([9]; 0.005-0.2 mg/kg ip per day for five days) was “no effect”. For the same molecule, the “total spine density, apical dendritic samples, versus vehicle” value ([9]; 0.005-0.2 mg/kg ip per day for five days, all dose groups) was “statistically significant difference (p<0.05, 2-tailed t-test) or trend (p<.01) compared to vehicle controls”, the “mature spines on apical dendrites of CA1 pyramidal neurons” value ([9]; treatment for 5 days) was “specifically increases mature spines” and the “NADPH-free T1/2 (half-life)” value ([6]; 5.0 μM, Mouse) was greater than 1 h. The “half-life in liver microsomes” value ([6]; in-vitro preparation) was “greater than 60 minutes”, the microsomal CLint at 5 μM ([6]; liver microsomes, 5.0 μM, Mouse, read-out: NADPH-dependent CLint (microsomal intrinsic clearance)) was 23.5 µL/min/mg and the “additional time remaining in the lighted compartment versus saline” value ([10]; given during training, optimal performance) was “about 100 seconds”. For the same molecule, the “best dose for memory enhancement” value ([10]; passive avoidance) was 0.5 mg/kg, the “plasma concentrations at two hours compared with galantamine” value [11] was “slightly lower than those of galantamine” and the “stability in mouse plasma” value [11] was “stable for greater than two hours”.

For Oc1c(I)cc(Cl)c2cccnc12 [Clioquinol], the ADAS-cog [12] is given as “decreased deterioration on the ADAS-cog”.

In the case of CC(C)[C@H](O)C(=O)N[C@@H](C)C(=O)N[C@@H]1C(=O)N(C)CCc2ccccc21 [semagacestat], the “CSF Aβ” value (γ-secretase [13]) is given as “potently decreased CSF Aβ” and the “reason for termination of Phase III trials” value (γ-secretase [13]) is given as “poorer performance in treated than placebo patients, and an increased incidence of skin cancer”.

In the case of CN(C)Cc1ccc2c(Cl)cc(Cl)c(O)c2n1 [PBT2], the “CSF Aβ42” value (patients with mild AD) is given as “decreased significantly”.

For Nc1c2c(nc3ccccc13)CCCC2 [tacrine], the neuroprotective effect [14] is given as “did not occur”.

B1: BDNF: brain-derived neurotrophic factor, positive control, gold standard of the neurite assay (protein, UniProt P23560 19-247, looked up)
Neurotrophic factor BDNF …: APMKEANIRGQGGLAYPGVRTHGTLESVNGPKAGSRGLTSLADTFEHVIEELLDEDQKVRPNEENNKDADLYTSRVMLSSQVPLEPPLLFLLEEYKNYLDAANMSMRVRRHSDPARRGELSVCDSISEWVTAADKKTAVDMSGGTVTVLEKVPVSKGQLKQYFYETKCNPMGYTKEGCRGIDKRHWNSQCRTTQSYVRALTMDSKKRIGWRFIRIDTSCVCTLTIKRGR
For B1, the “effect on Aβ oligomer-induced loss of neurite network” value (Rat cortical neurons; 50 ng/ml, positive control) was “preserves the neurite network”.

Reference: US11219627B2, “Clearance of amyloid beta” (priority 2014, dated 2022)
